Laboratory results published in patent publication EP4775571A1, “LPAR1 ANTAGONIST AND USE THEREOF” (Haisco Pharmaceutical Group Co., Ltd., priority 2023, dated 2025).

Tests used:
[1] = Pharmacokinetic test in mice; format: in vivo, C57 mice; details: for pharmacokinetic characteristics in mice: conclusion in words; for Vd: read-out: Vdss
Method: 2.1 Experimental animals: Male C57 mice, 20-25 g, 6 mice/compound, purchased from Chengdu Ddossy Experimental Animals Co., Ltd.
2.2 Experimental design: On the day of the experiment, the C57 mice were randomly grouped according to their body weights. The animals were fasted with water available for 12-14 h one day before the administration, and were fed 4 h after the administration. Table 2. Administration information
Before and after administration, 0.06 mL of blood was taken from the orbit under isoflurane anaesthesia and placed in an EDTAK2 centrifuge tube. The tube was centrifuged at 5000 rpm at 4°C for 10 min, and plasma was collected. The blood collection time points for the intravenous administration group and oral gavage administration group were: 0 min, 5 min, 15 min, 30 min, 1 h, 2 h, 4 h, 6 h, 8 h, and 24 h. Before analysis and detection, all samples were stored at -80°C, and the samples were quantitatively analysed by LC-MS/MS. Table 3. Pharmacokinetic parameters of test compounds in plasma of mice

LPAR1 = molecular target: T1, LPAR1 (Homo sapiens, UniProt Q92633); test: Cell calcium flux assay (antagonist mode, LPA at EC80, FLIPR); format: cell-based; details: CHO-LPA1 cells, calcium flux, grades; read-out: LPAR1 IC50
T1 construct: expressed in transfected cells; host or cells: CHO (CHO-LPA1 cells)
Method: • 1) The test compound was diluted to a 400X stock solution with DMSO in a 384-well plate. • 2) 1 µl of compound solution from step 1 was transferred into 39 ul of assay buffer to prepare a 10X working solution in a 384-well plate using a Bravo automated liquid handling platform. • 3) CHO-LPA1 cells were cultured in F12 medium (10% FBS). • 4) When cells reached 80% confluence, the cells were dissociated using 0.25% trypsin-EDTA. • 5) Cell density was determined and the cells were diluted to 4x10e5/ml using F12 (10% FBS). • 6) 30 µl of the cell suspension was dispensed into a 384-well plate (corning 3764#) using a multidrop automated dispenser, resulting in 12,000 cells per well. The plate was incubated at 37°C with 5% CO2 for 18-20 hours. • 7) The medium was replaced with 25 uL of serum-free medium and incubated overnight. • 8) 10 ul of 3.5X loading dye was added to each well of the cell plate. The plate was incubated in the dark at 37°C with 5% CO2 for 0.5-1 hours. • 9) After incubation, 5 µl of the 10X working solution from step 2 was transferred to the cell plate. • 10) The cell plate was incubated in the dark at 25°C for 15 minutes, and then the calcium signals were read. • 11) A 5X agonist (LPA) working solution in 1X HBSS+20 mM HEPES+0.1% BSA was prepared in a 384-well assay plate (greiner 784075#), with at least 20 µl per well. The agonist concentration used in this assay was determined based on the dose-response curve from a prior agonist mode experiment, with the EC80 value serving as the final agonist concentration. • 12) Data were read and saved using FLIPR at room temperature with the specified settings. • 13) The signal values were plotted against compound concentrations, and the curve fitting was performed and the IC50 values were calculated using nonlinear regression analysis in GraphPad Prism software.
IC50 values are represented by grades A, B, C, and D, where A represents 0 < IC50 ≤ 10 nM, B represents 10 nM < IC50 ≤ 50 nM, C represents 50 nM < IC50 ≤ 100 nM, and D represents IC50 > 100 nM. Table 1 Antagonistic activity of the compounds of the present invention against LPAR1

[2] = test system: bleomycin (BLM)-induced idiopathic pulmonary fibrosis (IPF); test: Mouse model of bleomycin (BLM)-induced idiopathic pulmonary fibrosis (IPF); format: in vivo, C57BL/6j mice
Excerpt: • 1) Screening and grouping: A total of 48 nine-week-old male C57BL/6j mice (experimental animals) were used in this study. Prior to the start of the experiment, the animals were divided into a sham-operated group (Group 1, 8 mice) and a model group (40 mice) based on their body weights. One week after model establishment, the model group animals were further divided into […] subgroups (Groups 2-6, n = 8 per group) based on their body weights. • 2) Animal model establishment: On day 1 of the experiment, the animals were anesthetised with Zoletil (50 mg/kg) and Xylazine (10 mg/kg). Mice in the model group received an intratracheal (i.t.) injection of bleomycin at a dose of 0.66 mg/kg (1 U/kg) in a volume of 50 µL on day 1. Mice in the sham-operated group (Group 1, […]) received an intratracheal injection of normal saline in a volume of 50 µL. • 3) Mode of administration of test compounds: Starting from day 7 of the experiment, the animals were treated as follows. Group 3: compound 22 was administered by oral gavage at a dose of 1 mg/kg at a volume of 10 mL/kg body weight, twice daily. Group 4: compound 22 was administered by oral gavage at a dose of 3 mg/kg at a volume of 10 mL/kg body weight, twice daily. Group 5: BMS-986278 was administered by oral gavage at a dose of 10 mg/kg at a volume of 10 mL/kg body weight, twice daily. Group 6: nintedanib was administered by oral gavage at a dose of 60 mg/kg at a volume of 10 mL/kg body weight, once daily. Sham-operated group (Group 1) and model group (Group 2): the vehicle was administered by oral gavage at a volume of 10 mL/kg body weight, twice daily. • 4) Test indicators: Lung tissues were collected at the study endpoint for pathological evaluation.

[3] = Pharmacokinetic test in rats; format: in vivo, SD rats; details: for pharmacokinetic characteristics in rats: conclusion in words; for Vd: read-out: Vdss
Method: 3.1. Experimental animals: Male SD rats, about 220 g, 6-8 weeks old, 6 rats/compound, purchased from Chengdu Ddossy Experimental Animals Co., Ltd.
3.2. Experimental design: On the day of the experiment, the SD rats were randomly grouped according to their body weights. The animals were fasted with water available for 12-14 h one day before the administration, and were fed 4 h after the administration. Table 4. Administration information
Before and after administration, 0.15 mL of blood was taken from the orbit under isoflurane anaesthesia and placed in an EDTAK2 centrifuge tube. The tube was centrifuged at 5000 rpm at 4°C for 10 min, and plasma was collected. Before analysis and detection, all samples were stored at -80°C, and the samples were quantitatively analysed by LC-MS/MS. Table 5. Pharmacokinetic parameters of test compound in plasma of rats

Caco2 permeability test = format: in vitro ADME; details: human, Caco-2 monolayer, 2 hours at 37°C
Method: In the experiment, a monolayer of Caco-2 cells was used, and incubated in triplicate in a 96-well Transwell plate. A transport buffer solution (HBSS, 10 mM HEPES, pH 7.4 ± 0.05) containing the compound of the present invention (2 µM) or the control compound digoxin (10 µM), nadolol (2 µM) or metoprolol (2 µM) was added to the administration end hole on the apical side or basal side. A DMSO-containing transport buffer solution was added to the corresponding receiving end hole. After incubation for 2 hours at 37°C ± 1°C, the cell plate was removed, and an appropriate amount of samples was taken from both the apical side and basal side and transferred to a new 96-well plate. Subsequently, acetonitrile containing an internal standard was added to precipitate the protein. The samples were analysed using LC MS/MS, and the concentrations of the compound of the present invention and the control compound were determined. Concentration data were used to calculate apparent permeability coefficients for transport from the apical side to the basal side, and from the basal side to the apical side of the cell monolayer, and thus to calculate the efflux ratio. The integrity of the cell monolayer after 2 hours of incubation was evaluated by leakage of Lucifer Yellow.

[4] = mouse, iv, mice, i.v. (1 mg/kg), plasma
[5] = mouse, po, mice, i.g. (3 mg/kg), plasma
[6] = 1 mg/kg oral gavage twice daily for 14 consecutive days
[7] = 3 mg/kg oral gavage twice daily for 14 consecutive days
[8] = 3 mg/kg oral gavage twice daily for 14 consecutive days, lung tissue at study endpoint
[9] = rat, iv, rats, i.v. (1 mg/kg), plasma
[10] = rat, po, rats, i.g. (3 mg/kg), plasma

T1 sequence (Q92633 whole entry): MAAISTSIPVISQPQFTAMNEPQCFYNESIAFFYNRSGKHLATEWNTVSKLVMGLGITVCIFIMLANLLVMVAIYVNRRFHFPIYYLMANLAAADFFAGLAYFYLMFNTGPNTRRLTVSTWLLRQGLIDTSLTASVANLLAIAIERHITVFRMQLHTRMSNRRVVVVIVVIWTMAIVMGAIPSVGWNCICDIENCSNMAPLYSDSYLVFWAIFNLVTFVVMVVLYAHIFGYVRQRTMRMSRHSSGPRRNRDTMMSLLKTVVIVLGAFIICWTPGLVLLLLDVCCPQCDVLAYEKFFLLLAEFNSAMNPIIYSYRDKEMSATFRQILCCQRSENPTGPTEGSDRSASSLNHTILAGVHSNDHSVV

| SMILES | pharmacokinetic characteristics in mice [1] | C0 or Cmax ([1]; mice, i.g. (3 mg/kg), plasma) | C0 or Cmax ([1]; mice, i.v. (1 mg/kg), plasma) | AUC(0-t) [1, 4] | clearance [1, 4] | Vd [1, 4] | AUC(0-t) [1, 5] | IC50 (LPAR1) | pharmacokinetic characteristics in rats [3] | AUC(0-t) [3, 9] | clearance [3, 9] | Vd [3, 9] | AUC(0-t) [3, 10] | C0 or Cmax ([3]; rats, i.g. (3 mg/kg), plasma) | C0 or Cmax ([3]; rats, i.v. (1 mg/kg), plasma) | other results |
| --- | --- | --- | --- | --- | --- | --- | --- | --- | --- | --- | --- | --- | --- | --- | --- | --- |
| Cc1nc(-c2nnn(C)c2CNC(=O)OC2CC(=C(F)F)C2)ccc1O[C@H]1CCC[C@H](C(=O)O)C1 (stereo partly shown) [Compound 22] | excellent pharmacokinetic characteristics | 1788 ± 180 ng/mL | 1537 ± 290 ng/mL | 1570 ± 74 ng·h/mL | 10.4 ± 0.55 mL/min/kg | 2.77 ± 0.16 L/kg | 5610 ± 1410 ng·h/mL | < 10 nM | good pharmacokinetic characteristics | 1790 ± 321 ng·h/mL | 9.45 ± 1.7 mL/min/kg | 1.21 ± 0.17 L/kg | 6710 ± 652 ng·h/mL | 1630 ± 162 ng/mL | 2428 ± 221 ng/mL | bioavailability ([1]; mouse, plasma, po, mice, i.g. (3 mg/kg)): ≥ 98%; Modified Ashcroft score compared with the vehicle-treated model group [2, 6]: significantly reduced; fibrotic area in lung tissues compared with the vehicle-treated model group [2, 6]: significantly reduced; Modified Ashcroft score compared with the vehicle-treated model group [2, 7]: significantly reduced; fibrotic area in lung tissues compared with the vehicle-treated model group [2, 7]: significantly reduced; Modified Ashcroft score [2, 8]: less than 4; fibrotic area [2, 8]: less than 20%; efficacy relative to BMS-986278 (10 mg/kg) and nintedanib (60 mg/kg) ([2]; dose of 1 mg/kg): comparable to that of BMS-986278 (10 mg/kg) and nintedanib (60 mg/kg); efficacy relative to BMS-986278 and nintedanib ([2]; dose of 3 mg/kg): superior efficacy to both BMS-986278 and nintedanib; bioavailability ([3]; rat, plasma, po, rats, i.g. (3 mg/kg)): ≥ 98% |
| C=C1CC(OC(=O)NCc2c(-c3ccc(O[C@H]4CCC[C@H](C(=O)O)C4)c(C)n3)nnn2C)C1 [Compound 26] | excellent pharmacokinetic characteristics | 659 ± 55 ng/mL | 2268 ± 193 ng/mL | 1580 ± 50 ng·h/mL | 10.3 ± 0.52 mL/min/kg | 2.83 ± 0.53 L/kg | 2290 ± 102 ng·h/mL | < 10 nM | good pharmacokinetic characteristics | 1870 ± 246 ng·h/mL | 8.91 ± 1.2 mL/min/kg | 1.21 ± 0.5 L/kg | 2880 ± 913 ng·h/mL | 1144 ± 145 ng/mL | 2745 ± 354 ng/mL | efflux ratio at 2 h, 2 µM (Caco2 permeability test; pH 7.4): 6.79; Papp A→B at 2 h, 2 µM (Caco2 permeability test; pH 7.4, read-out: Average apparent permeability coefficient A-B): 4.31 ×10⁻⁶ cm/s; Papp B→A at 2 h, 2 µM (Caco2 permeability test; pH 7.4, read-out: Average apparent permeability coefficient B-A): 29.2 ×10⁻⁶ cm/s |
